Data as given in ChEMBL document CHEMBL1201862, “PubChem BioAssay data set” (2004).
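How tested: cells in 96-well plates exposed to compound for 48 hours at five concentrations. GI50 = concentration required for 50% inhibition of growth.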 The source made the active and inactive calls. Rule as the data show it: active = GI50 up to about 1.1 µM and inactive = higher.

How the values were obtained:
Assay in all cases: NCI anticancer screen, dose series, 48 h
Malme-3M = tested on: Malme-3M
EKVX = tested on: EKVX
UO-31 = tested on: UO-31
RXF 393 = tested on: RXF 393
UACC-257 = tested on: UACC-257
HCT-15 = tested on: HCT-15
LOX IMVI = tested on: LOX IMVI
OVCAR-3 = tested on: OVCAR-3
SK-MEL-28 = tested on: SK-MEL-28
IGROV-1 = tested on: IGROV-1
HOP-62 = tested on: HOP-62
OVCAR-5 = tested on: OVCAR-5
786-0 = tested on: 786-0
NCI-H23 = tested on: NCI-H23
SW-620 = tested on: SW-620
OVCAR-8 = tested on: OVCAR-8
RPMI-8226 = tested on: RPMI-8226

Measured: GI50

O/N=C/c1ccc(O)c(O)c1
44.1 µM: HCT-15
inactive: Malme-3M > 100 µM | EKVX 75.7 µM | UO-31 54 µM | RXF 393 > 100 µM | UACC-257 > 100 µM | LOX IMVI 67.8 µM | OVCAR-3 31.8 µM | SK-MEL-28 > 100 µM | IGROV-1 65 µM | HOP-62 > 100 µM | OVCAR-5 > 100 µM | 786-0 > 100 µM | NCI-H23 > 100 µM | SW-620 15.4 µM | OVCAR-8 > 100 µM

Cc1cc(NS(=O)(=O)c2ccc(NC(=O)c3cccc4c(=O)c5ccccc5[nH]c34)cc2)no1
66.7 µM: HCT-15
inactive: Malme-3M 63.1 µM | EKVX 43.6 µM | UO-31 15.7 µM | UACC-257 87.7 µM | LOX IMVI 31.4 µM | OVCAR-3 29.4 µM | SK-MEL-28 41.2 µM | IGROV-1 40.5 µM | HOP-62 21.6 µM | RPMI-8226 33.8 µM | OVCAR-5 94.6 µM | 786-0 10.2 µM | NCI-H23 60.7 µM | SW-620 55.6 µM | OVCAR-8 12.5 µM

O=C1NN=CN2C(=O)CCC12 (configuration not stated)
> 100 µM: HCT-15
inactive: EKVX > 100 µM | UO-31 > 100 µM | RXF 393 > 100 µM | UACC-257 > 100 µM | LOX IMVI > 100 µM | OVCAR-3 > 100 µM | SK-MEL-28 > 100 µM | IGROV-1 > 100 µM | HOP-62 > 100 µM | RPMI-8226 > 100 µM | 786-0 > 100 µM | NCI-H23 > 100 µM | SW-620 > 100 µM | OVCAR-8 > 100 µM

O=C1CCC2CCOc3ccc(O)c1c32 (configuration not stated)
> 100 µM: HCT-15
inactive: Malme-3M > 100 µM | EKVX > 100 µM | UO-31 > 100 µM | RXF 393 > 100 µM | UACC-257 > 100 µM | OVCAR-3 > 100 µM | SK-MEL-28 > 100 µM | IGROV-1 > 100 µM | HOP-62 > 100 µM | RPMI-8226 > 100 µM | OVCAR-5 > 100 µM | 786-0 > 100 µM | NCI-H23 > 100 µM | OVCAR-8 > 100 µM

O=C(O)CC1CC=C[C@H]2c3cc4c(cc3C(=O)NC12)OCO4 (some centres not stated)
> 75 µM: HCT-15
inactive: Malme-3M > 75 µM | EKVX > 75 µM | UO-31 > 75 µM | RXF 393 > 75 µM | UACC-257 > 75 µM | LOX IMVI > 75 µM | OVCAR-3 > 75 µM | SK-MEL-28 > 75 µM | IGROV-1 > 75 µM | HOP-62 > 75 µM | RPMI-8226 > 75 µM | 786-0 > 75 µM | NCI-H23 > 75 µM | SW-620 > 75 µM | OVCAR-8 > 75 µM

CCCN(CCC)C(=O)c1nc(N)nc(-c2ccc(OC)cc2)c1-c1ccc(OC)cc1
> 100 µM: HCT-15
inactive: Malme-3M > 100 µM | EKVX > 100 µM | UO-31 > 100 µM | UACC-257 > 100 µM | OVCAR-3 > 100 µM | SK-MEL-28 > 100 µM | IGROV-1 > 100 µM | RPMI-8226 29 µM | OVCAR-5 > 100 µM | 786-0 > 100 µM | NCI-H23 > 100 µM | SW-620 > 100 µM | OVCAR-8 > 100 µM

O=C1[C@H]2ON(c3ccccc3)C(c3ccco3)[C@H]2C(=O)N1c1ccc(Cc2ccc(N3C(=O)[C@@H]4ON(c5ccccc5)C(c5ccco5)[C@@H]4C3=O)cc2)cc1 (some centres not stated)
> 100 µM: HCT-15
inactive: Malme-3M > 100 µM | UO-31 > 100 µM | RXF 393 > 100 µM | UACC-257 47.5 µM | LOX IMVI > 100 µM | OVCAR-3 > 100 µM | SK-MEL-28 > 100 µM | IGROV-1 > 100 µM | HOP-62 > 100 µM | RPMI-8226 > 100 µM | OVCAR-5 > 100 µM | 786-0 > 100 µM | NCI-H23 > 100 µM | SW-620 > 100 µM

CCc1cc(C)cc2[n+]1CC=C2.[O-][Cl+3]([O-])([O-])[O-]
inactive: Malme-3M 15.9 µM | EKVX 25.4 µM | UO-31 16.9 µM | RXF 393 > 100 µM | UACC-257 3.55 µM | LOX IMVI 32.7 µM | SK-MEL-28 27.2 µM | HOP-62 18.7 µM | OVCAR-5 15.5 µM | 786-0 27.5 µM | NCI-H23 13.9 µM | SW-620 7.33 µM | OVCAR-8 3.97 µM

Cc1cc(N(CCC#N)CCC#N)ccc1/N=N/c1ccc(C(=O)O)cc1
inactive: Malme-3M > 100 µM | EKVX > 100 µM | UO-31 77.6 µM | RXF 393 > 100 µM | UACC-257 > 100 µM | LOX IMVI > 100 µM | OVCAR-3 > 100 µM | SK-MEL-28 > 100 µM | IGROV-1 > 100 µM | HOP-62 61 µM | RPMI-8226 99.3 µM | OVCAR-5 > 100 µM | 786-0 > 100 µM | NCI-H23 > 100 µM | SW-620 > 100 µM | OVCAR-8 > 100 µM
> 100 µM: HCT-15
